Measured values reported in DBAASP.
In brackets after ≈: the same amount, converted by molar mass. Values belong to the compound of their own block, whether it stands above or below them.

Legend:
Test in all cases: ≥ marks a high value that may be exact or a test limit, other limits are often not marked, values filed in µg/mL are converted to µM
[1] = test system: Staphylococcus aureus ATCC 15752
[2] = test system: Escherichia coli ATCC 27325
[3] = test system: Bacillus subtilis ATCC 62037
[4] = test system: Streptococcus mutans ATCC 25175
[5] = test system: Salmonella enterica subsp. enterica serovar Enteritidis ATCC 13076
[6] = test system: Pseudomonas putida ATCC 17426
[7] = test system: Saccharomyces cerevisiae ATCC 44774
[8] = test system: Candida albicans ATCC 10231
Escherichia coli 37 = test system: Escherichia coli 37
[9] = test system: Escherichia coli ATCC 25922
Staphylococcus aureus 37 = test system: Staphylococcus aureus 37
[10] = test system: Candida albicans ATCC 2002
[11] = test system: Staphylococcus aureus ATCC 25923
[12] = test system: Enterococcus faecalis ATCC 29212
[13] = test system: Pseudomonas aeruginosa ATCC 27853
[14] = test system: Candida albicans ATCC 90028
Shigella dysenteriae = test system: Shigella dysenteriae
Pseudomonas aeruginosa = test system: Pseudomonas aeruginosa
[15] = test system: Enterobacter cloacae ATCC 13047
Escherichia coli 117 = test system: Escherichia coli 117
[16] = test system: Candida parapsilosis ATCC 22019
Escherichia coli 218 = test system: Escherichia coli 218
Klebsiella pneumoniae = test system: Klebsiella pneumoniae
[17] = test system: Klebsiella pneumoniae ATCC 700603
[18] = test system: Pseudomonas aeruginosa CMCCB 1010
[19] = test system: Saccharomyces cerevisiae ATCC 8530
[20] = test system: Pseudomonas putida NCIM 2102
Bacillus subtilis = test system: Bacillus subtilis
Micrococcus luteus MT166 = test system: Micrococcus luteus MT166
[21] = test system: Staphylococcus aureus ATCC 8530
Escherichia coli W160-37 = test system: Escherichia coli W160-37
[22] = test system: Pseudomonas aeruginosa 919
[23] = test system: Pseudomonas aeruginosa PAO1
[24] = test system: Pseudomonas aeruginosa 910
[25] = test system: Pseudomonas aeruginosa 253
[26] = test system: Escherichia coli KCTC 2223
[27] = test system: Micrococcus luteus ATCC 10240
[28] = test system: Salmonella typhimurium KCTC 2370

MIC [1]: 0.713 µM (≈ 2 µg/mL) | MIC [2]: 1.43 µM (≈ 4 µg/mL) | MIC [3]: 0.713 µM (≈ 2 µg/mL) | MIC [4]: 0.713 µM (≈ 2 µg/mL) | MIC [5]: 0.713 µM (≈ 2 µg/mL) | MIC [6]: 0.713 µM (≈ 2 µg/mL) | MIC [7]: 0.356 µM (≈ 1 µg/mL) | MIC [8]: 1.43 µM (≈ 4 µg/mL)
Compound: CC[C@H](C)[C@H](NC(=O)[C@@H]1CCCN1C(=O)[C@H](Cc1c[nH]c2ccccc12)NC(=O)[C@H](CCC(N)=O)NC(=O)[C@H](CCCN=C(N)N)NC(=O)[C@@H](NC(=O)[C@@H](NC(=O)[C@@H](N)CCCN=C(N)N)C(C)C)C(C)C)C(=O)NCC(=O)N[C@@H](CCCN=C(N)N)C(=O)N[C@H](C(=O)N[C@H](C(=O)N[C@@H](CCCN=C(N)N)C(=O)N[C@@H](CCCN=C(N)N)C(=O)N[C@H](C(=O)N[C@H](C(=O)N[C@@H](CCCN=C(N)N)C(=O)N[C@@H](CCCN=C(N)N)C(=O)N[C@H](C(=O)N[C@H](C(=O)N[C@@H](CCCN=C(N)N)C(=O)N[C@@H](Cc1ccc(O)cc1)C(=O)O)C(C)C)C(C)C)C(C)C)C(C)C)C(C)C)C(C)C [RVVRQWPIGRVVRRVVRRVVRY]

MIC (Escherichia coli 37): 3.66 µM (≈ 5 µg/mL) | MIC [9]: 14.6 µM (≈ 20 µg/mL) | MIC (Staphylococcus aureus 37): 7.32 µM (≈ 10 µg/mL) | MIC [10]: 7.32 µM (≈ 10 µg/mL) | MIC [11]: 3.66 µM (≈ 5 µg/mL) | MIC [12]: 3.66 µM (≈ 5 µg/mL) | MIC [13]: 29.3 µM (≈ 40 µg/mL) | MIC [14]: 7.32 µM (≈ 10 µg/mL) | MIC (Shigella dysenteriae): 14.6 µM (≈ 20 µg/mL) | MIC (Pseudomonas aeruginosa): 7.32 µM (≈ 10 µg/mL) | MIC [15]: 7.32 µM (≈ 10 µg/mL) | MIC (Escherichia coli 117): 14.6 µM (≈ 20 µg/mL) | MIC [16]: 29.3 µM (≈ 40 µg/mL) | MIC (Escherichia coli 218): 7.32 µM (≈ 10 µg/mL) | MIC (Klebsiella pneumoniae): 7.32 µM (≈ 10 µg/mL) | MIC [17]: 14.6 µM (≈ 20 µg/mL) | MIC [18]: 14.6 µM (≈ 20 µg/mL)
Compound: CC[C@H](C)[C@H](NC(=O)[C@H](C)NC(=O)[C@H](CCCCN)NC(=O)[C@H](CC(C)C)NC(=O)[C@@H](N)CC(N)=O)C(=O)N[C@@H](C)C(=O)N[C@@H](C)C(=O)N[C@@H](CC(C)C)C(=O)N[C@@H](C)C(=O)N[C@@H](CCCCN)C(=O)N[C@@H](CCCCN)C(=O)N[C@@H](CC(C)C)C(=O)N[C@@H](CC(C)C)C(=O)O [NLKAIAALAKKLL]

MIC [19]: ≥ 59.5 µM | MIC [20]: 29.8 µM (≈ 39.9 µg/mL) | MIC (Bacillus subtilis): 22.3 µM (≈ 29.9 µg/mL) | MIC (Micrococcus luteus MT166): 14.9 µM (≈ 20 µg/mL) | MIC [21]: 22.3 µM (≈ 29.9 µg/mL) | MIC (Escherichia coli W160-37): 29.8 µM (≈ 39.9 µg/mL)
Compound: CC[C@H](C)[C@@H]1NC(=O)[C@H](CCSC)NC(=O)[C@H]([C@@H](C)O)NC(=O)[C@@H](NC(=O)[C@@H](N)Cc2ccccc2)CSSC[C@@H](C(=O)N[C@@H](Cc2ccc(O)cc2)C(N)=O)NC(=O)[C@H](CCCN=C(N)N)NC(=O)[C@@H]2CCCN2C(=O)[C@H]([C@@H](C)CC)NC(=O)[C@@H]2CCCN2C1=O [FCTMIPIPRCY]

MIC [22]: ≥ 32 µM | MIC [23]: 16 µM (≈ 25.5 µg/mL) | MIC [24]: ≥ 32 µM | MIC [25]: 16 µM (≈ 25.5 µg/mL)
Compound: CC[C@H](C)[C@H](NC(=O)[C@H](CCCN=C(N)N)NC(=O)[C@H](Cc1c[nH]c2ccccc12)NC(=O)[C@H](CC(C)C)NC(=O)[C@@H](N)CCCN=C(N)N)C(=O)N[C@H](C(=O)N[C@H](C(=O)N[C@H](C(=O)N[C@@H](CCCN=C(N)N)C(=O)N[C@H](C(=O)N[C@@H](CCCCN)C(=O)N[C@@H](CCCN=C(N)N)C(N)=O)C(C)C)[C@@H](C)CC)C(C)C)C(C)C [RLWRIVVIRVKR]

MIC [26]: 16 µM (≈ 30.2 µg/mL) | MIC [1]: 1 µM (≈ 1.89 µg/mL) | MIC [27]: 1 µM (≈ 1.89 µg/mL) | MIC [28]: 8 µM (≈ 15.1 µg/mL)
Compound: CC(C)C[C@H](NC(=O)[C@H](CCCCN)NC(=O)[C@H](CCC(N)=O)NC(=O)[C@H](CCCCN)NC(=O)[C@H](CC(C)C)NC(=O)[C@H](CC(C)C)NC(=O)[C@H](CCC(N)=O)NC(=O)[C@H](CC(C)C)NC(=O)[C@H](CC(C)C)NC(=O)[C@@H]1CCCN1C(=O)[C@H](CCCN=C(N)N)NC(=O)[C@H](CC(C)C)NC(=O)[C@H](CC(C)C)NC(=O)[C@@H](N)CCCN=C(N)N)C(=O)N[C@@H](CCCN=C(N)N)C(=O)O [RLLRPLLQLLKQKLR]
